These results are taken from patent US20210085692A1, “AGENTS, COMPOSITIONS AND METHODS FOR TREATING AND PREVENTING ALZHEIMER'S DISEASE” (UNIVERSITY OF SOUTHERN CALIFORNIA, priority 2018, published 2021).

Data set [1] is described as follows: Phase 1 multiple ascending dose clinical trial: plasma levels after weekly intravenous infusion. The class given is in vivo, human. As to conditions: for Cmax: human, plasma. As for the experimental part:
(§1) Clinical Trials were carried out in adult humans (see gov Identifier: NCT02221622 for the ongoing Phase 1b/2a clinical trial at https://clinicaltrials.gov/ct2/show/NCT02221622).
(§2) A randomized double-blind, placebo controlled, multiple ascending dose, phase 1 clinical trial was conducted in patients with mild cognitive impairment due to AD or mild AD or dementia.
(§3) Participants were randomly assigned to receive weekly intravenous infusion of either 2 mg, 4 mg, or 6 mg of Allo or placebo (N=6/group) for 12 weeks. Primary outcomes were to assess safety, tolerability and determine maximally tolerated dose (MTD). Secondary exploratory outcomes were the feasibility and impact of Allo on MRI indicators of regeneration and cognition. Lymphocyte derived iPSCs differentiated to neural stem cells were used to develop biomarker strategy to identify potential regenerative responders.
The standard Phase I dose escalation double-blind, placebo-controlled, single site trial included 24 research participants in three dose cohorts. Each cohort included 8 research participants randomized to drug or placebo in a 6:2 allocation ratio. Cohorts as follows: • Dosing cohort 1) 2 mg Allo or placebo • Dosing cohort 2) 4 mg Allo or placebo • Dosing cohort 3) 6 mg Allo or placebo Each dose cohort was separated by 6 weeks to process, obtain, and assess all safety and tolerability data.
The trial evaluated three doses (2.0, 4.0 and 6.0 mg) of allopregnanolone (Allo) in a delivery vehicle of 6% sulfobutylether-β-cyclodextrin and 0.9% sodium chloride and placebo containing an equal volume of 0.9% sodium chloride for injection USP administered by intravenous sinfusion once per week for 12 weeks. Although the dosing study is not powered to detect statistically significant treatment differences on MRI outcomes and cognition, the MRI is required per FDA safety concerns with respect to amyloid-related imaging abnormalities, such as micro hemorrhages, as per FDA correspondence. Grouped differences from placebo-treated participants were evaluated in an exploratory fashion using the outcomes planned for the larger phase 2, proof of concept trial in order to obtain parameter estimates for the trial design.]
Allo dose selection of 2.0, 4.0 and 6.0 mg was determined by pre-clinical dose response analyses for neurogenesis, an IV bridging study in 3×TgAD mice, prior clinical studies, physiologically-based pharmacokinetics (PBPK) modeling and simulations of pharmacodynamic responses using available pre-clinical and clinical data of non-sedative to mildly sedative doses Planned study Allo doses are within the FDA requirement to not exceed 157 nmol/L (50 ng/ml) plasma concentration Planned Allo dose equivalencies based on 70 kg human are: 2.0 mg=0.028 mg/kg; 4.0 mg=0.056/mg/kg; 6.0 mg=0.084 mg/kg. With respect to safety, intravenous doses of Allo in the same dose range as those for this trial have been administered previously with acceptable safety and. […] Allo in sulfobutylether-β-cyclodextrin and 0.9% sodium chloride formulation was administered intravenously over 30 minutes once per week for 12 weeks. Participants were monitored under medical supervision for a minimum of two hours after each dose. The regimen for Allo administration is based on preclinical analyses that indicate that a once per week treatment regimen results in increased neurogenesis with reduction in AD pathology.

For data set [2], the system named is patients with mild cognitive impairment due to AD or mild AD or dementia. The experiment in a line: Phase 1 clinical trial: safety, tolerability and maximally tolerated dose. The class given is in vivo, human. How it is done: as §1, §2
Participants were randomly assigned to receive weekly intravenous infusion of either 2 mg, 4 mg, or 6 mg of Allo or placebo (N=6/group) for 12 weeks. Primary outcomes were to assess safety, tolerability and determine maximally tolerated dose (MTD). Secondary exploratory outcomes were the feasibility and impact of Allo on MRI indicators of regeneration and cognition. […]
The trial evaluated three doses (2.0, 4.0 and 6.0 mg) of allopregnanolone (Allo) in a delivery vehicle of 6% sulfobutylether-β-cyclodextrin and 0.9% sodium chloride and placebo containing an equal volume of 0.9% sodium chloride for injection USP administered by intravenous sinfusion once per week for 12 weeks. […] Grouped differences from placebo-treated participants were evaluated in an exploratory fashion using the outcomes planned for the larger phase 2, proof of concept trial in order to obtain parameter estimates for the trial design.] […]

Data set [3] has the same test system. Kind of data set: Phase 1 clinical trial: MRI indicators of regeneration (gray matter, hippocampal volume). It counts as in vivo, human.
Data set [4] shares this test system. The experiment in a line: Phase 1 clinical trial: cognition (ADAScog14, Cog state). It counts as in vivo, human. As to conditions: 12 weeks, once per week. How it is done:
as §2, §3
The standard Phase I dose escalation double-blind, placebo-controlled, single site trial included 24 research participants in three dose cohorts. […]
The trial evaluated three doses (2.0, 4.0 and 6.0 mg) of allopregnanolone (Allo) in a delivery vehicle of 6% sulfobutylether-β-cyclodextrin and 0.9% sodium chloride and placebo containing an equal volume of 0.9% sodium chloride for injection USP administered by intravenous sinfusion once per week for 12 weeks. […] Grouped differences from placebo-treated participants were evaluated in an exploratory fashion using the outcomes planned for the larger phase 2, proof of concept trial in order to obtain parameter estimates for the trial design.]

The test system of data set [5] is humanized ApoE3,3, ApoE4,4 and ApoE3,4 mice. Kind of data set: Novel Object Recognition (NOR) memory test. As to conditions: for Novel Object Discrimination Index / Novel Object Exploration time: vs saline. It counts as in vivo. How it is done: To access impact of Allopregnanolone (Allo) on memory function, humanized ApoE3,3, ApoE4,4 and ApoE3,4 mice were tested using Novel Object Recognition (NOR) in accordance with published literature (Antunes and Biala, Cogn Process. 2012 May; 13(2): 93-110; Ennaceur, Behav Brain Res. 2010 Dec. 31; 215(2):244-54. doi: 10.1016/j.bbr.2009.12.036. Epub 2010 Jan. 7; Leger et al., Nat Protoc. 2013 December; 8(12):2531-7. doi: 10.1038/nprot.2013.155. Epub 2013 Nov. 21; Piterkin et al., Learn. Mem., 15 (2008), pp. 785-791; Taglialatela et al., Behav Brain Res. 200(1): 95-99. 2009).
Behavioral NOR testing was conducted following 24 weekly injections of Allopregnanolone (Allo; 1.5 mg/mL) or saline (0.9%). The Allo and saline used to treat the mice were identical to the Allo and saline used in the clinical trial (ClinicalTrials.gov Identifier: NCT02221622).
Behavioral testing and analysis of behavioral outcomes were conducted blind to the experimental condition. Code for treatment groups was unblinded for statistical analyses by analyst who was independent of behavioral testing.
Difference in exploration time (in seconds) was calculated by subtracting the time spent exploring the familiar object from that of the novel object (Tn−Tf) and denoted by ‘Df’. Second, a ratio of the difference in exploration time to the total time spent exploring was calculated (Tn−Tf/Tn+Tf) and denoted by Discrimination Index (DI). The DI can vary between +1 and −1, where a positive score indicates more time spent with the novel object, a negative score indicates more time spent with the familiar object, and a zero score indicates a null preference (Antunes and Biala, 2012). The DI adjusts for difference in total exploration time (Broadbent et al.). Statistical analyses were conducted using Mann-Whitney test and p-value of less than 0.05 was considered significant.

For data set [6] the following is noted: intravenous doses in the same dose range, earlier studies; cited from earlier work.
Setting [7] is: ApoE3:3 females and males, 24 weekly injections.

Consider `CC(=O)[C@H]1CC[C@H]2[C@@H]3CC[C@H]4C[C@H](O)CC[C@]4(C)[C@H]3CC[C@]12C` [Allo, 3α-hydroxy-5α-pregnan-20-one], for which the “Correlation (R) of Cmax with Allo delivered in mg/kg dose” value in data set [1] (2, 4 and 6 mg cohorts) stood at 0.77. Also, the “Time to peak plasma levels” value in data set [1] (from start of 30 minute intravenous infusion, AD patients) was at most 30 min. In addition, the Cmax in data set [1] (2 mg intravenous infusion) was 63 ± 21 nM; in data set [1] (4 mg intravenous infusion), 130 ± 26 nM; in data set [1] (6 mg intravenous infusion) it was 248 ± 84 nM. In data set [2] (intravenous infusion), the “MTD, established by onset of sedation” value is given as above 6 mg. In data set [2] (twelve week exposure, multiple doses once per week), the “Adverse effects, serious adverse events, ARIA” value was “no reportable adverse effects, serious adverse events or ARIA”. Besides, the “Left hippocampal volume (subfield analysis)” value in data set [3] (Allo 4 mg cohort, 12 weeks) is listed as “increase in left hippocampal volume”. Besides, the Brain mass entry in data set [3] (human subjects over 55 years having Apo E4 genetic marker) is listed as “increased brain mass”. For the same compound, in data set [3] (structural analysis, 12 weeks), the “MRI based indicators of gray matter volume” value is “consistent with regeneration in select brain regions”. Further, the “Cognitive function measured by ADAScog14” value in data set [4] is “not improved”. In addition, the Cog state indicators entry in data set [4] (some indicators) is “consistent with improvement”. For the same compound, the “Novel Object Discrimination Index” value is reported as “no effect” in data set [5] (setting [7]); “significantly increased” in data set [5] (ApoE 4/4 females and males, p<0.05). The “Novel Object Exploration time” value was “no effect, either positive or negative” in data set [5] (setting [7]); “significantly increased” in data set [5] (ApoE 4:4 females, 24 weekly injections); “trended towards an increase” in data set [5] (ApoE4:4 males, 24 weekly injections). The “Exploration of the novel object” value in data set [5] (ApoE 3:4 female mice, p=0.05) was “significantly increased”. Moreover, the “Ability to discriminate between novel vs familiar object (Discrimination Index)” value in data set [5] (ApoE 3:4 female mice, p=0.06) was “trended towards a significant increase”. For the same compound, the “TEAEs (nausea, mild sedation, fatigue, flushing, anxiety)” value in data set [6] is “mild and transient”.
